What follows are compounds tested on Gram negative fermenting bacteria; Enterobacter gergoviae and Klebsiella species (assay: Liquid broth MIC assay of individual chemicals). Conditions: tryptic soy broth, 30° C., 24 hours, OD600, MIC = concentration at which <25% growth vs positive growth control.
Type: cell-based
Procedure: Liquid broth assays (MIC and checkerboard) were conducted to identify the minimum concentration(s) of individual and tertiary antimicrobial chemicals. A modified methodology to ISO 20776-1:2006 was utilized for the screening as follows. Stock solutions of antimicrobial chemicals and tryptic soy broth were inoculated with 1-5×10^6 microorganism mixture of Gram negative fermenting bacteria; Enterobacter gergoviae and Klebsiella species.
Samples were incubated at 30° C. for 24 hours, after which optical densities at OD600 nm were measured.

SMILES	MIC
C=C(C)[C@H]1CC=C(C)CC1 [Limonene]	2 wt %
CC1=CC[C@@H](C(C)(C)O)CC1 [Terponeol]	0.125 wt %
C=CCc1ccc(O)c(OC)c1 [Eugenol]	0.063 wt %
CC12CCC(CC1)C(C)(C)O2 [Eucalyptol]	2 wt %
Cc1cc(CC(C)CC(C)(C)C)n(O)c(=O)c1.NCCO (stereo not shown) [Octopirox, piroctone olamine, reference compound]	0.063 wt %
OCCc1ccccc1 [Phenethyl Alcohol]	0.5 wt %
O=C([O-])c1ccccc1.[Na+] [Sodium benzoate]	0.5 wt %
CC(=O)OCc1ccccc1 [Benzyl Acetate]	2 wt %
CC(C)=CCCC(C)CCO (stereo not shown) [Citroneol]	2 wt %
CCCCCCCC1CCC(=O)O1 (stereo not shown) [Gamma Undecalactone]	2 wt %
CC1CCC(C(C)C)C(O)C1 (stereo not shown) [Menthol]	2 wt %
CC(C)=CCC/C(C)=C/CO [Geraniol Natural, Geraniol]	2 wt %
CCCCCCOC(C)=O [Hexyl acetate]	2 wt %
CC(=O)OC/C=C(\C)CCC=C(C)C [Geranyl Acetate]	2 wt %
C=C(CC(=O)O)C(=O)O [ltaconic Acid]	0.5 wt %
CCCC(=O)OCC [Ethyl Butyrate]	2 wt %
